Laboratory results as given in the supplement of paper PMC4862054.

Key:
Assay in all cases: normalised viability (% of control), CellTiter-Blue; higher = more viable cells (about 100 = DMSO control)
Settings in all cases: incubation time: 72 h
SK-BR-3 = system: SK-BR-3
Procedure: (§1)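 DSRT, CellTiter-Blue viability, 72 h incubation. Signal is normalised to DMSO and benzethonium chloride controls. Value is the normalised response at dose 3.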

CAL-148 [1] = system: CAL-148
Procedure: as §1

HCC1937 = system: HCC1937
Procedure: as §1

MDA-MB-436 = system: MDA-MB-436
Procedure: as §1

HDQ-P1 [2] = system: HDQ-P1
Procedure: as §1

CAL-85-1 [3] = system: CAL-85-1
Procedure: as §1

CAL-120 = system: CAL-120
Procedure: as §1

MDA-MB-468 = system: MDA-MB-468
Procedure: as §1

CAL-51 [4] = system: CAL-51
Procedure: as §1

BT-474 = system: BT-474
Procedure: as §1

MFM-223 = system: MFM-223
Procedure: as §1

HCC1599 = system: HCC1599
Procedure: as §1

MDA-MB-231 = system: MDA-MB-231
Procedure: as §1

HCC1143 = system: HCC1143
Procedure: as §1

DU-4475 [5] = system: DU-4475
Procedure: as §1

Hs578T = system: Hs578T
Procedure: as §1

BT-549 = system: BT-549
Procedure: as §1

MDA-MB-453 [6] = system: MDA-MB-453
Procedure: as §1

CAL-148 [7] = system: CAL-148; remark: listed apart in the source
Procedure: (§2)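 DSRT, CellTiter-Blue viability, 72 h incubation. Signal is normalised to DMSO and benzethonium chloride controls. Value is the normalised response at dose 9.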

HDQ-P1 [8] = system: HDQ-P1; remark: listed apart in the source
Procedure: as §2

CAL-85-1 [9] = system: CAL-85-1; remark: listed apart in the source
Procedure: as §2

CAL-51 [10] = system: CAL-51; remark: listed apart in the source
Procedure: as §2

DU-4475 [11] = system: DU-4475; remark: listed apart in the source
Procedure: as §2

MDA-MB-453 [12] = system: MDA-MB-453; remark: listed apart in the source
Procedure: as §2

CAL-148 [13] = system: CAL-148; remark: listed apart in the source
Procedure: (§3)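 DSRT, CellTiter-Blue viability, 72 h incubation. Signal is normalised to DMSO and benzethonium chloride controls. Value is the normalised response at dose 6.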

HDQ-P1 [14] = system: HDQ-P1; remark: listed apart in the source
Procedure: as §3

CAL-85-1 [15] = system: CAL-85-1; remark: listed apart in the source
Procedure: as §3

CAL-51 [16] = system: CAL-51; remark: listed apart in the source
Procedure: as §3

DU-4475 [17] = system: DU-4475; remark: listed apart in the source
Procedure: as §3

MDA-MB-453 [18] = system: MDA-MB-453; remark: listed apart in the source
Procedure: as §3

C=CC(=O)N1CCC[C@@H](n2nc(-c3ccc(Oc4ccccc4)cc3)c3c(N)ncnc32)C1
normalised viability (SK-BR-3; 10 nM): 57.9%
normalised viability (CAL-148 [1]; 1 nM): 99.5%
normalised viability (HCC1937; 10 nM): 108%
normalised viability (MDA-MB-436; 10 nM): 88.2%
normalised viability (HDQ-P1 [2]; 1 nM): 111%
normalised viability (CAL-85-1 [3]; 1 nM): 96.2%
normalised viability (CAL-120; 10 nM): 83.5%
normalised viability (MDA-MB-468; 10 nM): 102%
normalised viability (CAL-51 [4]; 1 nM): 95%
normalised viability (BT-474; 10 nM): 84.3%
normalised viability (MFM-223; 10 nM): 91.1%
normalised viability (HCC1599; 10 nM): 85.6%
normalised viability (MDA-MB-231; 10 nM): 90.3%
normalised viability (HCC1143; 10 nM): 79.6%
normalised viability (DU-4475 [5]; 1 nM): 92.8%
normalised viability (Hs578T; 10 nM): 99.8%
normalised viability (BT-549; 10 nM): 97.9%
normalised viability (MDA-MB-453 [6]; 1 nM): 94.4%
normalised viability (CAL-148 [7]; 1000 nM): 76.3%
normalised viability (HDQ-P1 [8]; 1000 nM): 69.1%
normalised viability (CAL-85-1 [9]; 1000 nM): 49.1%
normalised viability (CAL-51 [10]; 1000 nM): 86.5%
normalised viability (DU-4475 [11]; 1000 nM): 97.8%
normalised viability (MDA-MB-453 [12]; 1000 nM): 26.5%
normalised viability (CAL-148 [13]; 30 nM): 44.8%
normalised viability (HDQ-P1 [14]; 30 nM): 107%
normalised viability (CAL-85-1 [15]; 30 nM): 96%
normalised viability (CAL-51 [16]; 30 nM): 92.2%
normalised viability (DU-4475 [17]; 30 nM): 84.4%
normalised viability (MDA-MB-453 [18]; 30 nM): 50.2%

COc1cc2nccc(Oc3ccc(NC(=O)Nc4cc(C)on4)c(Cl)c3)c2cc1OC [Tivozanib]
normalised viability (SK-BR-3; 100 nM): 105%
normalised viability (CAL-148 [1]; 10 nM): 95.6%
normalised viability (HCC1937; 100 nM): 88.2%
normalised viability (MDA-MB-436; 100 nM): 88.1%
normalised viability (HDQ-P1 [2]; 10 nM): 79%
normalised viability (CAL-85-1 [3]; 10 nM): 103%
normalised viability (CAL-120; 100 nM): 106%
normalised viability (MDA-MB-468; 100 nM): 96.8%
normalised viability (CAL-51 [4]; 10 nM): 99%
normalised viability (BT-474; 100 nM): 112%
normalised viability (MFM-223; 100 nM): 80.8%
normalised viability (HCC1599; 100 nM): 119%
normalised viability (MDA-MB-231; 100 nM): 91.1%
normalised viability (HCC1143; 100 nM): 113%
normalised viability (DU-4475 [5]; 10 nM): 115%
normalised viability (Hs578T; 100 nM): 91.5%
normalised viability (BT-549; 100 nM): 90.4%
normalised viability (MDA-MB-453 [6]; 10 nM): 94.5%
normalised viability (CAL-148 [7]; 10000 nM): 96.8%
normalised viability (HDQ-P1 [8]; 10000 nM): 55.9%
normalised viability (CAL-85-1 [9]; 10000 nM): 82.9%
normalised viability (CAL-51 [10]; 10000 nM): 40.7%
normalised viability (DU-4475 [11]; 10000 nM): 107%
normalised viability (MDA-MB-453 [12]; 10000 nM): 28.3%
normalised viability (CAL-148 [13]; 300 nM): 95.9%
normalised viability (HDQ-P1 [14]; 300 nM): 61.2%
normalised viability (CAL-85-1 [15]; 300 nM): 102%
normalised viability (CAL-51 [16]; 300 nM): 89.8%
normalised viability (DU-4475 [17]; 300 nM): 109%
normalised viability (MDA-MB-453 [18]; 300 nM): 95.8%

Nc1nc(F)nc2c1ncn2[C@@H]1O[C@H](CO)[C@@H](O)[C@@H]1O [Fludarabine]
normalised viability (SK-BR-3; 100 nM): 99.9%
normalised viability (CAL-148 [1]; 10 nM): 90.9%
normalised viability (HCC1937; 100 nM): 110%
normalised viability (MDA-MB-436; 100 nM): 95.2%
normalised viability (HDQ-P1 [2]; 10 nM): 103%
normalised viability (CAL-85-1 [3]; 10 nM): 101%
normalised viability (CAL-120; 100 nM): 82.2%
normalised viability (MDA-MB-468; 100 nM): 109%
normalised viability (CAL-51 [4]; 10 nM): 101%
normalised viability (BT-474; 100 nM): 107%
normalised viability (MFM-223; 100 nM): 92.8%
normalised viability (HCC1599; 100 nM): 105%
normalised viability (MDA-MB-231; 100 nM): 95.3%
normalised viability (HCC1143; 100 nM): 83%
normalised viability (DU-4475 [5]; 10 nM): 115%
normalised viability (Hs578T; 100 nM): 95.4%
normalised viability (BT-549; 100 nM): 107%
normalised viability (MDA-MB-453 [6]; 10 nM): 109%
normalised viability (CAL-148 [7]; 10000 nM): 64.9%
normalised viability (HDQ-P1 [8]; 10000 nM): 80.1%
normalised viability (CAL-85-1 [9]; 10000 nM): 78.1%
normalised viability (CAL-51 [10]; 10000 nM): 101%
normalised viability (DU-4475 [11]; 10000 nM): 99.3%
normalised viability (MDA-MB-453 [12]; 10000 nM): 93.6%
normalised viability (CAL-148 [13]; 300 nM): 72.2%
normalised viability (HDQ-P1 [14]; 300 nM): 75.3%
normalised viability (CAL-85-1 [15]; 300 nM): 90.4%
normalised viability (CAL-51 [16]; 300 nM): 103%
normalised viability (DU-4475 [17]; 300 nM): 100%
normalised viability (MDA-MB-453 [18]; 300 nM): 100%
